The source of these data is the AptaBench aptamer set (doi:10.1093/nar/gkaf219).

pKd: −log10 of the molar value.

Settings in all cases: 10 mM Tris-HCl, pH 7.4
The subject of experiment [1] is DNA aptamer or structured DNA GGGACGACGGGGATTCGCGGATTCATAGAAAAGGGCTCGTCCGTCGTCCC
In experiment [2] the test system is DNA aptamer or structured DNA CTTACGACATCTGCGTGTGGCCGGTGTGAGGGAGGGATGTCGTAAG
For experiment [3], the system named is DNA aptamer or structured DNA GGGACGACGCGTACCTGTGGTAGTTGTACGTCGTTCAAGTCGTCCC
The test system of experiment [4] is DNA aptamer or structured DNA GGGACGACGCAGCAGTCCATCTCTCAGCGAGTTCGTCAGTCGTCCC
Experiment [5] concerns DNA aptamer or structured DNA GGGACGACGGGATGTGGTGTCAGTCATGATGGGATCAAGTCGTCCC
The test system of experiment [6] is DNA aptamer or structured DNA GGGACGACGGATTGCGCTTGCTAACGCCGTGTAGAGTCGTCGTCCC
In experiment [7] the test system is DNA aptamer or structured DNA GGGACGACATGGGATACCAGAGTCCTGGGATGTGGTGTGTCGTCCC

As usually defined, the pKd is the Kd on a negative log10 scale, so that one unit is a factor of ten. The low end stands for a large Kd, the high end for a small Kd.
Throughout, for binding call: call rule not given here.

With `CCN(CC)CCOC(=O)c1ccc(N)cc1`, the binding call in experiment [1] is “no binding”; in experiment [2] it was “binds”.
On to `Cc1nnc2n1-c1ccc(Cl)cc1C(c1ccccc1)=NC2`, for which, in experiment [3], the binding call is recorded as “no binding”.
Regarding `CN[C@@H](C)Cc1ccccc1`, the binding call in experiment [4] was “no binding”; in experiment [2], “binds”.
Regarding `NCCc1c[nH]c2ccc(O)cc12`, in experiment [1], the binding call was “no binding”.
In the case of `CC(=O)Nc1ccc(O)cc1`, the binding call in experiment [4] was “binds”; in experiment [5] it was “no binding”.
Turning to `O=C1CC[C@@]2(O)[C@H]3Cc4ccc(O)c5c4[C@@]2(CCN3CC2CC2)[C@H]1O5`, the binding call in experiment [3] is “no binding”.
Turning to `CN[C@@H](C)[C@@H](O)c1ccccc1`, the binding call in experiment [2] is on record as “binds”.
As to `CN1CC[C@]23c4c5ccc(O)c4O[C@H]2[C@@H](O)C=C[C@H]3[C@H]1C5`, the pKd in experiment [1] was 5.60.
On to `Cn1c(=O)c2c(ncn2C)n(C)c1=O`, for which the binding call in experiment [6], in experiment [4] and in experiment [2] was “no binding” each time.
Take `CN(C)CCOC(c1ccccc1)c1ccccc1`: the binding call in experiment [6] is reported as “no binding”.
`COc1ccc2c3c1O[C@H]1C(=O)CC[C@@]4(O)[C@@H](C2)N(C)CC[C@]314`: the pKd in experiment [6] was 5.67; in experiment [7] it was 5.56; in experiment [4] it was 5.65; in experiment [5], 5.44.
`NCCc1ccc(O)c(O)c1`: the binding call in experiment [1] is recorded as “no binding”.
`CC(=O)Oc1ccc2c3c1O[C@H]1[C@@H](OC(C)=O)C=C[C@H]4[C@@H](C2)N(C)CC[C@@]341`: in experiment [3], the pKd is 5.38. Also, the binding call in experiment [2] was “binds”.
In the case of `c1ccc([C@H]2CN3CCSC3=N2)cc1`, in experiment [3], the binding call is recorded as “no binding”.
As to `C=CCN1CC[C@]23c4c5ccc(O)c4O[C@H]2C(=O)CC[C@@]3(O)[C@H]1C5`, the binding call in experiment [7] and in experiment [3] was “no binding” each time.
Turning to `CN1C(=O)CN=C(c2ccccc2)c2cc(Cl)ccc21`, the binding call in experiment [6] and in experiment [7] was “no binding” each time.
